Experimental data as given in article PMC9501280, “Anti-Inflammatory Activity of Soluble Epoxide Hydrolase Inhibitors Based on Selenoureas Bearing an Adamantane Moiety” (International Journal of Molecular Sciences, 2022).
In brackets after ≈: the same amount, converted by molar mass. Like-named read-outs stand apart in the source and are kept apart here.

Legend:
[1] = test system: C57bl/6j peritoneal macrophages; test: MTT cytotoxicity on peritoneal macrophages; assay type: cell-based, mice; conditions: Mus musculus, Peritoneal macrophage, read-out: EC50 ± SEM, C57bl/6j
Protocol: (§1) Peritoneal macrophages (PM) were isolated from the peritoneal exudate of 30 male C57bl/6j mice. To accumulate PM, 1 mL of 3% peptone solution was injected intraperitoneally. After 3 days, the mice were euthanized by cervical dislocation. Cells of peritoneal exudate were obtained by aseptic washing of the abdominal cavity with 5 mL of sterile Hanks’s solution (+4–6 °C) without calcium and magnesium ions. The total number and viability of cells were assessed in a Goryaev counting chamber (Russia) with a 0.4% trypan blue staining (Sigma-Aldrich, St. Louis, MO, USA). The cell concentration was adjusted to 1.0 × 10^6 cells/mL in DMEM (Gibco) supplemented with 2 mM L-glutamine (Gibco), 10% heat-inactivated fetal bovine serum (BioClot, Passau, Germany), 100 U/mL penicillin and […] streptomycin (Gibco) and plated 200 μL/well in 96-well transparent plates (SPL Life Sciences Co., Ltd., Pochon, Korea). After 2 h at 37 °C in a humidified atmosphere with 5% CO2, wells were washed to remove nonadherent cells. After 24 h of incubation, 20 μL of the supernatants were substituted with 20 μL of solutions of the test compounds, followed with E. coli O127:B8 LPS (100 ng/mL final concentration) after 30 min. Experiments were run in 3 independent replicates.
(§2) The activity of lactate dehydrogenase (LDH) in a cell culture medium served as a marker of membrane permeability and cell death. Aliquots of supernatants were taken after 24 h of inoculation with test compounds, mixed with 250 μL of […] NADH solution in 54 mM phosphate-buffered saline (pH 7.5). Then, 25 μL of a 6.48 mM pyruvate solution was added to the mixture. The optical density was followed at a wavelength of 340 nm for 20 min. The MTT test was performed 24 h after the incubation of cells with the tested compounds. Briefly, 20 μL of MTT solution was added to each well and incubated at 37 °C in a humidified atmosphere containing 5% CO2 for 4 h. The culture medium was aspirated, the cells were lysed and formazan crystals dissolved in 150 μL of DMSO. The plates were shaken at room temperature for 10 min, and the optical density was measured in a microplate reader Infinite M200 PRO (Tecan Group Ltd., Männedorf, Switzerland) at a wavelength of 565 nm.

[2] = MTT cytotoxicity on peritoneal macrophages; assay type: cell-based, mice; conditions: male, C57bl/6j, mouse, 24 h incubation, read-out: MTT CC50 ± SE
Protocol: as §1, §2

[3] = LDH release cytotoxicity on peritoneal macrophages; assay type: cell-based, mice; conditions: male, C57bl/6j, mouse, 24 h incubation, read-out: LDH CC50 ± SE
Protocol: as §1
as §2, with “Briefly, 20 μL of MTT solution was added to each well and incubated at 37 °C in a humidified atmosphere containing 5% CO2 for 4 h. The culture medium was aspirated, the cells were lysed and formazan crystals dissolved in 150 μL of DMSO.” left out

[4] = test system: LPS-stimulated C57bl/6j peritoneal macrophages; test: Suppression of NO synthesis in LPS-stimulated peritoneal macrophages (Griess); assay type: cell-based, mice; conditions: for IC50: Mus musculus, Peritoneal macrophage, read-out: NO Synthesis, IC50 ± SE
Excerpt: For screening designed compounds according to their probable ability to limit inflammation, we used a test on the inhibition of LPS-induced activation of primary murine macrophages. The most prominent anti-inflammatory activity, defined as the suppression of nitric oxide synthesis by LPS-stimulated macrophages, was evident for compounds 4a and 5b. At the same time, for 4a, the cytotoxic concentration was 4.7–18.4 times higher than the effective anti-inflammatory concentration. […] According to the data obtained, there is no direct correlation between the efficiency of the inhibition of sEH and NO synthesis, which requires further studies of the anti-inflammatory activity of the investigated compounds.
as §1
The accumulation of nitrite anion (a stable decomposition product of NO produced by iNOS) in the supernatants was determined using a standard Griess reagent. Briefly, 50 μL of supernatants collected 22 h after incubation of PM with the test and control compounds were mixed with 50 μL of 1% sulfonamide in 2.5% H3PO4 and 50 μL of 0.1% N-(1-naphthyl) ethylenediamine in 2.5% H3PO4. After incubation at 23 °C for 10 min. in an orbital shaker, the optical density was determined at a wavelength of 550 nm with a microplate reader Infinite M200 PRO (Tecan, Austria).

E. coli PQ37 = test: SOS chromotest; assay type: cell-based; conditions: induction factor
Protocol: For the final safety check of selenoureas, the SOS chromotest was carried out. […] The results are presented as the mean value of induction factor I (c) ± SEM based on the results of three independent experiments, each of which included three replicates (Table 5).
The SOS chromotest was carried out according to the standard procedure, with recommended additions. The E. coli PQ37 strain was provided by P. Quillardet (Paris, France). The test compounds were dissolved in dimethyl sulfoxide (DMSO) (also used as a negative control) and added to the bacterial medium in the required concentrations; the concentration of the injected solutions was 1% by volume.

human recombinant sEH = molecular target: T1, human recombinant sEH (Homo sapiens, UniProt P34913); test: Human sEH inhibition, kinetic fluorescent assay; assay type: biochemical; conditions: kinetic fluorescent assay; means of three separate experiments; read-out: Human sEH IC50
T1 sequence (P34913 1-555): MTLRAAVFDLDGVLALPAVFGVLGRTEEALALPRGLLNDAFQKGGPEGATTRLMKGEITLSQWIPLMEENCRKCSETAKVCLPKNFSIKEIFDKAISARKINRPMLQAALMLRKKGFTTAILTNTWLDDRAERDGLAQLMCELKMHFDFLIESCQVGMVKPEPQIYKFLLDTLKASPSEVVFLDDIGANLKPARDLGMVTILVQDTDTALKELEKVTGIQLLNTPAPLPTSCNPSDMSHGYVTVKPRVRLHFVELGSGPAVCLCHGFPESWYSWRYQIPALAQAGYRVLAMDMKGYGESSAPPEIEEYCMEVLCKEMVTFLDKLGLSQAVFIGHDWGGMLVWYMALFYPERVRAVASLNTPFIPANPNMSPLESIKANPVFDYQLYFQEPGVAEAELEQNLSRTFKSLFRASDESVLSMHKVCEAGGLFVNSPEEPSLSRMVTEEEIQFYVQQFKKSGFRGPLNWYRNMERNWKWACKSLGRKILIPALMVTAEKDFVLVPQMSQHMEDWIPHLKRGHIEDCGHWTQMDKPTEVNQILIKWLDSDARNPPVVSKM

[5] = test system: human fibroblast cells (MRC-5); test: MTT test with human fibroblast cells; assay type: cell-based; conditions: read-out: EC50 ± SEM, MRC-5
Protocol: The studied compounds were added in concentrations of 1, 3, 6, 12, 25, 50, and 100 μM.
Human fibroblast cells (MRC-5) were used in this study. The cells were cultured in the DMEM medium that contained 10% embryonic calf serum in a CO2 incubator at 37 °C. The tested compounds were dissolved in DMSO and added to the cellular culture at the required concentrations. Three wells were used for each concentration. The cells that were incubated without the compounds were used as a negative control, and doxorubicin was used as the positive one. Cells were placed on 96-well microliter plates and cultivated at 37 °C in 5% CO2/95% air for 72 h. The cell viability was assessed through an MTT (3-(4,5-dimethylthiazol-2-yl)-2,5-phenyl-2H-tetrazolium bromide) conversion assay. A total of 1% MTT was added to each well. Three hours later, isopropanol was added and mixed for 15 min. Optical density (OD) of the samples was measured on a ThermoFischer multi-well spectrophotometer at a wavelength of 450 nm. […] The experimental results are given as average values obtained from three independently conducted experiments.

[6] = Solubility in sodium phosphate buffer; assay type: physicochemical; conditions: aqueous buffer, kinetic from dmso stock; sodium phosphate buffer (pH 7.4, 0.1 M) containing 1% DMSO
Protocol: To our knowledge, no systematic studies of selenoureas as sEH inhibitors have been performed previously. The potency of the compounds was determined against the human recombinant sEH and their solubility assessed in phosphate-buffered saline (Table 1).

Compound	IC50 (human recombinant sEH) [nM]	melting point [°C]	solubility [6] [µM]	further results
[Se]=C(NCc1ccccc1)NCC12CC3CC(CC(C3)C1)C2 [5b, 1-[(Adamantan-1-yl)methyl]-3-benzylselenourea]	200	158 to 159	–	EC50 [1]: 17700 ± 5660 nM; CC50 at 24 h [2]: 17700 ± 5700 nM; CC50 at 24 h [3]: 20400 ± 5300 nM; cytotoxic concentration versus effective anti-inflammatory concentration ([4]; CC50 (MTT, LDH) over NO synthesis IC50, peritoneal macrophages): comparable; IC50 ([4]; 22 h): 27800 ± 5200 nM; I(c) ± SE, 10 µM (E. coli PQ37; compound 10 µM): 1.12 ± 0.18; I(c) ± SE, 25 µM (E. coli PQ37; compound 25 µM): 0.95 ± 0.13; I(c) ± SE, 50 µM (E. coli PQ37; compound 50 µM): 0.99 ± 0.11; I(c) ± SE, 100 µM (E. coli PQ37; compound 100 µM): 0.97 ± 0.08; EC50 ([5]; MRC5, 72 h): 3040 ± 660 nM
CC(NC(=[Se])NCc1ccccc1)C12CC3CC(CC(C3)C1)C2 (centres unmarked) [5c, 1-[1-(Adamantan-1-yl)ethyl]-3-benzylselenourea]	274	154 to 155	110 ± 20 (≈ 41.3 µg/mL)	–
[Se]=C(NCCC12CC3CC(CC(C3)C1)C2)NCc1ccccc1 [5d, 1-[2-(Adamantan-1-yl)ethyl]-3-benzylselenourea]	34.3	142 to 143	140 ± 20 (≈ 52.6 µg/mL)	–
[Se]=C(NCc1ccccc1)Nc1ccc(C23CC4CC(CC(C4)C2)C3)cc1 [5e, 1-[4-(Adamantan-1-yl)phenyl]-3-benzylselenourea]	204	147 to 148	200 ± 20 (≈ 84.7 µg/mL)	–
CC12CC3CC(C)(C1)CC(NC(=[Se])NCc1ccccc1)(C3)C2 [5f, 1-(3,5-Dimethyladamantan-1-yl)-3-benzylselenourea]	48.5	112 to 113	–	–
[Se]=C(NCc1ccccc1)NC1C2CC3CC(C2)CC1C3 (centres unmarked) [5g, 1-(Adamantan-2-yl)-3-benzylselenourea]	120	139 to 140	110 ± 10 (≈ 38.2 µg/mL)	–
C[C@@H]1C[C@H]2[C@@H]3CCC4=CC(=O)C=C[C@]4(C)[C@@]3(F)[C@@H](O)C[C@]2(C)[C@@]1(O)C(=O)CO [Dexamethasone, reference compound]	–	–	–	EC50 ([1]; MTT, peritoneal macrophages of C57bl/6j mice): > 100000 nM; CC50 at 24 h ([2]; primary peritoneal macrophages): > 100000 nM; CC50 at 24 h ([3]; primary peritoneal macrophages): > 100000 nM; IC50 ([4]; LPS 100 ng/mL, supernatants after 22 h): 3 ± 1 nM
CC(=O)N1CCC(NC(=O)NC23CC4CC(CC(C4)C2)C3)CC1 [compound 1153, reference compound]	–	–	970 ± 60 (≈ 310 µg/mL)	–
COc1cccc2c1C(=O)c1c(O)c3c(c(O)c1C2=O)C[C@@](O)(C(=O)CO)C[C@@H]3O[C@H]1C[C@H](N)[C@H](O)[C@H](C)O1 [doxorubicin, reference compound]	–	–	–	EC50 ([5]; MRC5, MTT, 72 h): 2410 ± 150 nM
